Assay results published in ChEMBL document CHEMBL2203120, “Contribution to investigation of antimicrobial activity of styrylquinolines” (Bioorg Med Chem, 2012).
Converted amounts (≈) assume the structure as drawn.

Legend:
[1] = Lipophilicity, log P of compound by RP-HPLC analysis; format: physicochemical
[2] = tested on: Staphylococcus epidermidis; experiment: Antimicrobial activity against Staphylococcus epidermidis H 6966/08 after 48 hrs by broth microdilution method; format: functional; conditions: H 6966/08, 48 h
[3] = tested on: Staphylococcus epidermidis; experiment: Antimicrobial activity against Staphylococcus epidermidis H 6966/08 after 24 hrs by broth microdilution method; format: functional; conditions: H 6966/08, 24 h
Staphylococcus aureus [4] = experiment: Antimicrobial activity against methicillin-resistant Staphylococcus aureus H 5996/08 after 48 hrs by broth microdilution method; format: functional; conditions: H 5996/08, 48 h
Staphylococcus aureus [5] = experiment: Antimicrobial activity against methicillin-resistant Staphylococcus aureus H 5996/08 after 24 hrs by broth microdilution method; format: functional; conditions: H 5996/08, 24 h
Staphylococcus aureus [6] = experiment: Antimicrobial activity against Staphylococcus aureus CCM 4516/08 after 48 hrs by broth microdilution method; format: functional; conditions: CCM 4516/08, 48 h
Staphylococcus aureus [7] = experiment: Antimicrobial activity against Staphylococcus aureus CCM 4516/08 after 24 hrs by broth microdilution method; format: functional; conditions: CCM 4516/08, 24 h
[8] = tested on: Trichophyton mentagrophytes; experiment: Antimicrobial activity against Trichophyton mentagrophytes 445 after 72 hrs by broth microdilution test; format: functional; conditions: Trichophyton mentagrophytes, 445, 72 h
Lichtheimia corymbifera [9] = experiment: Antimicrobial activity against Absidia corymbifera 272 after 24 hrs by broth microdilution test; format: functional; conditions: Lichtheimia corymbifera, 272, 24 h
Aspergillus fumigatus [10] = experiment: Antimicrobial activity against Aspergillus fumigatus 231 after 24 hrs by broth microdilution test; format: functional; conditions: Aspergillus fumigatus, 231, 24 h
Trichosporon beigelii [11] = experiment: Antimicrobial activity against Trichosporon beigelii 1188 after 24 hrs by broth microdilution test; format: functional; conditions: Trichosporon beigelii, 1188, 24 h
Nakaseomyces glabratus [12] = experiment: Antimicrobial activity against Candida glabrata 20/I after 24 hrs by broth microdilution test; format: functional
Pichia kudriavzevii [13] = experiment: Antimicrobial activity against Candida krusei ATCC 6258 after 24 hrs by broth microdilution test; format: functional; conditions: ATCC 6258, 24 h
Candida tropicalis [14] = experiment: Antimicrobial activity against Candida tropicalis 156 after 24 hrs by broth microdilution test; format: functional; conditions: Candida tropicalis, 156, 24 h
Candida albicans [15] = experiment: Antimicrobial activity against Candida albicans ATCC 44859 after 24 hrs by broth microdilution test; format: functional; conditions: ATCC 44859, 24 h
[16] = tested on: Trichophyton mentagrophytes; experiment: Antimicrobial activity against Trichophyton mentagrophytes 445 after 120 hrs by broth microdilution test; format: functional; conditions: Trichophyton mentagrophytes, 445, 120 h
Lichtheimia corymbifera [17] = experiment: Antimicrobial activity against Absidia corymbifera 272 after 48 hrs by broth microdilution test; format: functional; conditions: Lichtheimia corymbifera, 272, 48 h
Aspergillus fumigatus [18] = experiment: Antimicrobial activity against Aspergillus fumigatus 231 after 48 hrs by broth microdilution test; format: functional; conditions: Aspergillus fumigatus, 231, 48 h
Trichosporon beigelii [19] = experiment: Antimicrobial activity against Trichosporon beigelii 1188 after 48 hrs by broth microdilution test; format: functional; conditions: Trichosporon beigelii, 1188, 48 h
Nakaseomyces glabratus [20] = experiment: Antimicrobial activity against Candida glabrata 20/I after 48 hrs by broth microdilution test; format: functional
Pichia kudriavzevii [21] = experiment: Antimicrobial activity against Candida krusei ATCC 6258 after 48 hrs by broth microdilution test; format: functional; conditions: ATCC 6258, 48 h
Candida tropicalis [22] = experiment: Antimicrobial activity against Candida tropicalis 156 after 48 hrs by broth microdilution test; format: functional; conditions: Candida tropicalis, 156, 48 h
Candida albicans [23] = experiment: Antimicrobial activity against Candida albicans ATCC 44859 after 48 hrs by broth microdilution test; format: functional; conditions: ATCC 44859, 48 h

In the case of `Oc1ccccc1/C=C/c1ccc2ccccc2n1`, the logP [1] is reported as 4.34, the MIC90 [2] is reported as greater than 250 µM and the MIC90 [3] is reported as greater than 500 µM. It also gave an MIC90 (Staphylococcus aureus [4]) greater than 250 µM, an MIC90 (Staphylococcus aureus [5]) greater than 250 µM and an MIC90 (Staphylococcus aureus [6]) greater than 250 µM. The MIC90 (Staphylococcus aureus [7]) was greater than 250 µM, the MIC50 [8] was greater than 125 µM and the MIC50 (Lichtheimia corymbifera [9]) was greater than 125 µM. For the same compound, the MIC50 (Aspergillus fumigatus [10]) was greater than 125 µM, the MIC80 (Trichosporon beigelii [11]) was greater than 125 µM and the MIC80 (Nakaseomyces glabratus [12]) was greater than 125 µM. For the same compound, the MIC80 (Pichia kudriavzevii [13]) was greater than 125 µM, the MIC80 (Candida tropicalis [14]) was greater than 125 µM and the MIC80 (Candida albicans [15]) was greater than 125 µM.
Work on `Oc1cccc2ccc(/C=C/c3ccccc3Cl)nc12` yielded a logP [1] of 4.9, an MIC90 [2] greater than 500 µM and an MIC90 [3] greater than 500 µM. The MIC90 (Staphylococcus aureus [4]) was greater than 500 µM, the MIC90 (Staphylococcus aureus [5]) was greater than 500 µM and the MIC90 (Staphylococcus aureus [6]) was greater than 500 µM. For the same compound, the MIC90 (Staphylococcus aureus [7]) was greater than 500 µM, the MIC50 [8] was greater than 500 µM and the MIC50 (Lichtheimia corymbifera [9]) was greater than 500 µM. The MIC50 (Aspergillus fumigatus [10]) was greater than 500 µM, the MIC80 (Trichosporon beigelii [11]) was greater than 500 µM and the MIC80 (Nakaseomyces glabratus [12]) was greater than 500 µM. It also gave an MIC80 (Pichia kudriavzevii [13]) greater than 500 µM, an MIC80 (Candida tropicalis [14]) greater than 500 µM and an MIC80 (Candida albicans [15]) greater than 500 µM.
`Clc1ccccc1/C=C/c1ccc2ccccc2n1` gave a logP [1] of 5.25, an MIC90 [2] greater than 500 µM and an MIC90 [3] greater than 500 µM. For the same compound, the MIC90 (Staphylococcus aureus [4]) was greater than 500 µM, the MIC90 (Staphylococcus aureus [5]) was greater than 500 µM and the MIC90 (Staphylococcus aureus [6]) was greater than 500 µM. It also gave an MIC90 (Staphylococcus aureus [7]) greater than 500 µM, an MIC50 [8] greater than 500 µM and an MIC50 (Lichtheimia corymbifera [9]) greater than 500 µM. For the same compound, the MIC50 (Aspergillus fumigatus [10]) was greater than 500 µM, the MIC80 (Trichosporon beigelii [11]) was greater than 500 µM and the MIC80 (Nakaseomyces glabratus [12]) was greater than 500 µM. It also gave an MIC80 (Pichia kudriavzevii [13]) greater than 500 µM, an MIC80 (Candida tropicalis [14]) greater than 500 µM and an MIC80 (Candida albicans [15]) greater than 500 µM.
Compound `CCOc1ccc(/C=C/c2ccc3ccccc3n2)cc1` has a logP [1] of 4.61, an MIC90 [2] greater than 500 µM and an MIC90 [3] greater than 500 µM. It also gave an MIC90 (Staphylococcus aureus [4]) greater than 500 µM, an MIC90 (Staphylococcus aureus [5]) greater than 500 µM and an MIC90 (Staphylococcus aureus [6]) greater than 500 µM. For the same compound, the MIC90 (Staphylococcus aureus [7]) was greater than 500 µM, the MIC50 [8] was greater than 500 µM and the MIC50 (Lichtheimia corymbifera [9]) was greater than 500 µM. The MIC50 (Aspergillus fumigatus [10]) was greater than 500 µM, the MIC80 (Trichosporon beigelii [11]) was greater than 500 µM and the MIC80 (Nakaseomyces glabratus [12]) was greater than 500 µM. For the same compound, the MIC80 (Pichia kudriavzevii [13]) was greater than 500 µM, the MIC80 (Candida tropicalis [14]) was greater than 500 µM and the MIC80 (Candida albicans [15]) was greater than 500 µM.
Work on `Clc1ccccc1/C=C/c1ccc2cccc(Cl)c2n1` yielded a logP [1] of 5.85, an MIC90 [2] greater than 500 µM and an MIC90 [3] greater than 500 µM. The MIC90 (Staphylococcus aureus [4]) was greater than 500 µM, the MIC90 (Staphylococcus aureus [5]) was greater than 500 µM and the MIC90 (Staphylococcus aureus [6]) was greater than 500 µM. For the same compound, the MIC90 (Staphylococcus aureus [7]) was greater than 500 µM, the MIC50 [8] was greater than 500 µM and the MIC50 (Lichtheimia corymbifera [9]) was greater than 500 µM. The MIC50 (Aspergillus fumigatus [10]) was greater than 500 µM, the MIC80 (Trichosporon beigelii [11]) was greater than 500 µM and the MIC80 (Nakaseomyces glabratus [12]) was greater than 500 µM. For the same compound, the MIC80 (Pichia kudriavzevii [13]) was greater than 500 µM, the MIC80 (Candida tropicalis [14]) was greater than 500 µM and the MIC80 (Candida albicans [15]) was greater than 500 µM.
`Oc1ccc(/C=C/c2ccc3cccc(O)c3n2)c(O)c1` gave an MIC50 [16] of 62.5 µM (≈ 17.5 µg/mL), an MIC50 (Lichtheimia corymbifera [17]) greater than 125 µM and an MIC50 (Aspergillus fumigatus [18]) of 125 µM (≈ 34.9 µg/mL). It also gave an MIC80 (Trichosporon beigelii [19]) of 125 µM (≈ 34.9 µg/mL), an MIC80 (Nakaseomyces glabratus [20]) of 125 µM (≈ 34.9 µg/mL) and an MIC80 (Pichia kudriavzevii [21]) of 125 µM (≈ 34.9 µg/mL). It also gave an MIC80 (Candida tropicalis [22]) greater than 125 µM, a logP [1] of 3.56 and an MIC90 [2] of 250 µM (≈ 69.8 µg/mL). It also gave an MIC90 [3] of 125 µM (≈ 34.9 µg/mL), an MIC90 (Staphylococcus aureus [4]) of 62.5 µM (≈ 17.5 µg/mL) and an MIC90 (Staphylococcus aureus [5]) of 31.2 µM (≈ 8.73 µg/mL). The MIC90 (Staphylococcus aureus [6]) was 31.2 µM (≈ 8.73 µg/mL), the MIC90 (Staphylococcus aureus [7]) was 15.6 µM (≈ 4.36 µg/mL) and the MIC80 (Candida albicans [23]) was greater than 125 µM. It also gave an MIC50 [8] of 31.2 µM (≈ 8.73 µg/mL), an MIC50 (Lichtheimia corymbifera [9]) greater than 125 µM and an MIC50 (Aspergillus fumigatus [10]) of 125 µM (≈ 34.9 µg/mL). The MIC80 (Trichosporon beigelii [11]) was 62.5 µM (≈ 17.5 µg/mL), the MIC80 (Nakaseomyces glabratus [12]) was 62.5 µM (≈ 17.5 µg/mL) and the MIC80 (Pichia kudriavzevii [13]) was 62.5 µM (≈ 17.5 µg/mL). The MIC80 (Candida tropicalis [14]) was greater than 125 µM and the MIC80 (Candida albicans [15]) was 125 µM (≈ 34.9 µg/mL).
`CCOc1ccccc1/C=C/c1ccc2cccc(O)c2n1` gave a logP [1] of 4.55, an MIC90 [2] greater than 500 µM and an MIC90 [3] greater than 500 µM. The MIC90 (Staphylococcus aureus [4]) was greater than 500 µM, the MIC90 (Staphylococcus aureus [5]) was greater than 500 µM and the MIC90 (Staphylococcus aureus [6]) was greater than 500 µM. The MIC90 (Staphylococcus aureus [7]) was greater than 500 µM, the MIC50 [8] was greater than 500 µM and the MIC50 (Lichtheimia corymbifera [9]) was greater than 500 µM. It also gave an MIC50 (Aspergillus fumigatus [10]) greater than 500 µM, an MIC80 (Trichosporon beigelii [11]) greater than 500 µM and an MIC80 (Nakaseomyces glabratus [12]) greater than 500 µM. It also gave an MIC80 (Pichia kudriavzevii [13]) greater than 500 µM, an MIC80 (Candida tropicalis [14]) greater than 500 µM and an MIC80 (Candida albicans [15]) greater than 500 µM.
Work on `CCOc1ccc(/C=C/c2ccc3cccc(O)c3n2)cc1` yielded a logP [1] of 4.55, an MIC90 [2] greater than 500 µM and an MIC90 [3] greater than 500 µM. It also gave an MIC90 (Staphylococcus aureus [4]) greater than 500 µM, an MIC90 (Staphylococcus aureus [5]) greater than 500 µM and an MIC90 (Staphylococcus aureus [6]) greater than 500 µM. It also gave an MIC90 (Staphylococcus aureus [7]) greater than 500 µM, an MIC50 [8] greater than 500 µM and an MIC50 (Lichtheimia corymbifera [9]) greater than 500 µM. For the same compound, the MIC50 (Aspergillus fumigatus [10]) was greater than 500 µM, the MIC80 (Trichosporon beigelii [11]) was greater than 250 µM and the MIC80 (Nakaseomyces glabratus [12]) was greater than 250 µM. It also gave an MIC80 (Pichia kudriavzevii [13]) greater than 500 µM, an MIC80 (Candida tropicalis [14]) greater than 500 µM and an MIC80 (Candida albicans [15]) greater than 500 µM.
`Oc1c(Cl)cc(Cl)c2ccc(/C=C/c3ccccc3Cl)nc12` showed a logP [1] of 6.02.
With `Oc1ccccc1/C=C/c1ccc2c(Cl)cc(Cl)c(O)c2n1` the logP [1] was 5.07.
